Measurements as given in patent publication US20100104659A1, “BENZOPYRANOPYRAZOLES” (priority 2006, published 2010).

Test system: RKO human colon adenocarcinoma cells (RKOp27 subclone), proliferating
Test: Alamar Blue cell viability assay, RKO p27 uninduced (proliferating)
Settings: RKOp27, 72 h, read-out: −log EC50 [mol/l] RKO p27 uninduced (proliferating), anti-proliferative/cytotoxic activity (converted)
Description: The anti-proliferative/cytotoxic activity of the compounds described herein can be tested on subclones of RKO human colon adenocarcinoma cells (Schmidt et al., Oncogene 19, 2423-2429; 2000) using the Alamar Blue cell viability assay (described in O'Brien et al. Eur J Biochem 267, 5421-5426, 2000). The compounds are dissolved as 10 mM solutions in DMSO and subsequently diluted in semi-logarithmic steps. DMSO dilutions are further diluted 1:100 into Dulbecco's modified Eagle's medium (DMEM) containing 10% fetal calf serum to a final concentration twice as much as the final concentration in the test. RKO subclones are seeded into 96 well flat bottom plates at a density of 4000 cells per well in a volume of 50 μl per well. 24 hours after seeding the 50 μl each of the compound dilutions in DMEM medium are added into each well of the 96 well plate. Each compound dilution is tested as triplicates. Wells containing untreated control cells are filled with 50 μl DMEM medium containing 1% DMSO. The cells are then incubated with the substances for 72 hours at 37° C. in a humidified atmosphere containing 5% carbon dioxide. To determine the viability of the cells, 10 μl of an Alamar Blue solution (Biosource) are added and the fluorescence is measured at an extinction of 544 nm and an emission of 590 nm. For the calculation of the cell viability the emission value from untreated cells is set as 100% viability and the emission rates of treated cells are set in relation to the values of untreated cells. Viabilities are expressed as % values. The Graphpad Prism program (GraphPad Software, Inc) is used for the calculation of EC50 values for anti-proliferative/cytotoxic activity out of the obtained dose-response curves.
Each compound dilution is tested as triplicates. Wells containing untreated control cells are filled with 50 μl DMEM medium containing 1% DMSO. The cells are then incubated with the substances for 72 hours at 37° C. in a humidified atmosphere containing 5% carbon dioxide. To determine the viability of the cells, 10 μl of an Alamar Blue solution (Biosource) are added and the fluorescence is measured at an extinction of 544 nm and an emission of 590 nm. For the calculation of the cell viability the emission value from untreated cells is set as 100% viability and the emission rates of treated cells are set in relation to the values of untreated cells. Viabilities are expressed as % values. The Graphpad Prism program is used for the calculation of EC50 values out of the obtained dose-response curves. Viability is compared of proliferating cells grown in the absence of the inducer Ponasterone A, versus viability of cells arrested by the expression of ectopic p27Kip1 induced by Ponasterone A.

| Structure (SMILES) | EC50 [nM] |
| --- | --- |
| CN(C(=O)N1N=C2c3cc(F)ccc3OCC2C1c1ccccc1)C1CCCNC1 (mixture of isomers) [Example 25, (3RS,3aRS)-8-Fluoro-3-phenyl-3a,4-dihydro-3H-chromeno[4,3-c]pyrazole-2-carboxylic acid (R)-methyl-piperidin-3-yl-amide and (3RS,3aRS)-8-Fluoro-3-phenyl-3a,4-dihydro-3H-chromeno[4,3-c]pyrazole-2-carboxylic acid (S)-methyl-piperidin-3-yl-amide] | ≤ 100 |
| CN(C)C(=O)N1N=C2c3cc(F)ccc3OC[C@H]2[C@@H]1c1cccc(O)c1 (racemic) [Example 1, (3RS,3aSR)-8-Fluoro-3-(3-hydroxy-phenyl)-3a,4-dihydro-3H-chromeno[4,3-c]pyrazole-2-carboxylic acid dimethylamide] | 100 to 1000 |
| CN(C)C(=O)N1N=C2c3cc(F)ccc3OC[C@@H]2[C@@H]1c1cccc(O)c1 (racemic) [Example 2, (3RS,3aRS)-8-Fluoro-3-(3-hydroxy-phenyl)-3a,4-dihydro-3H-chromeno[4,3-c]pyrazole-2-carboxylic acid dimethylamide] | 100 to 1000 |
| CN(C)CCN(C)C(=O)N1N=C2c3cc(F)ccc3OC[C@@H]2[C@@H]1c1cccc(O)c1 (racemic) [Example 4, (3RS,3aRS)-8-Fluoro-3-(3-hydroxy-phenyl)-3a,4-dihydro-3H-chromeno[4,3-c]pyrazole-2-carboxylic acid (2-dimethylamino-ethyl)-methyl-amide] | ≤ 100 |
| CN1CCC(N(C(=O)N2N=C3c4cc(F)ccc4OC[C@@H]3[C@@H]2c2cccc(O)c2)C2CC2)CC1 (racemic) [Example 5, (3RS,3aRS)-8-Fluoro-3-(3-hydroxy-phenyl)-3a,4-dihydro-3H-chromeno[4,3-c]pyrazole-2-carboxylic acid cyclopropyl-(1-methyl-piperidin-4-yl)-amide] | 100 to 1000 |
| CN(C)CCCN(C)C(=O)N1N=C2c3cc(F)ccc3OC[C@@H]2[C@@H]1c1cccc(O)c1 (racemic) [Example 6, (3RS,3aRS)-8-Fluoro-3-(3-hydroxy-phenyl)-3a,4-dihydro-3H-chromeno[4,3-c]pyrazole-2-carboxylic acid (3-dimethylamino-propyl)-methyl-amide] | ≤ 100 |
| CN1CCC(N(C)C(=O)N2N=C3c4cc(F)ccc4OC[C@@H]3[C@@H]2c2ccccc2)CC1 (racemic) [Example 9, (3RS,3aRS)-8-Fluoro-3-phenyl-3a,4-dihydro-3H-chromeno[4,3-c]pyrazole-2-carboxylic acid methyl-(1-methyl-piperidin-4-yl)-amide] | ≤ 100 |
| CCN(CCN(C)C)C(=O)N1N=C2c3cc(F)ccc3OC[C@@H]2[C@@H]1c1ccccc1 (racemic) [Example 10, (3RS,3aRS)-8-Fluoro-3-phenyl-3a,4-dihydro-3H-chromeno[4,3-c]pyrazole-2-carboxylic acid (2-dimethylamino-ethyl)-ethyl-amide] | ≤ 100 |
| CN(C)CCCN(C)C(=O)N1N=C2c3cc(F)ccc3OC[C@@H]2[C@@H]1c1ccccc1 (racemic) [Example 11, (3RS,3aRS)-8-Fluoro-3-phenyl-3a,4-dihydro-3H-chromeno[4,3-c]pyrazole-2-carboxylic acid (3-dimethylamino-propyl)-methyl-amide] | ≤ 100 |
| CC(C)CN(C)C(=O)N1N=C2c3cc(F)ccc3OC[C@@H]2[C@@H]1c1ccccc1 (racemic) [Example 12, (3RS,3aRS)-8-Fluoro-3-phenyl-3a,4-dihydro-3H-chromeno[4,3-c]pyrazole-2-carboxylic acid isobutyl-methyl-amide] | 100 to 1000 |
| CN1CCC(N(C(=O)N2NC3c4cc(F)ccc4OC[C@H]3[C@@H]2c2ccccc2)C2CC2)CC1 (mixture of isomers) [Example 15, (3RS,3aRS)-8-Fluoro-3-phenyl-1,3a,4,9b-tetrahydro-3H-chromeno[4,3-c]pyrazole-2-carboxylic acid cyclopropyl-(1-methyl-piperidin-4-yl)-amide] | ≤ 100 |
| CN(C)CCN(C)C(=O)N1N=C2c3cc(F)ccc3OC[C@@H]2[C@@H]1c1ccccc1 (racemic) [Example 19, (3RS,3aRS)-8-Fluoro-3-phenyl-3a,4-dihydro-3H-chromeno[4,3-c]pyrazole-2-carboxylic acid (2-dimethylamino-ethyl)-methyl-amide] | ≤ 100 |
| CN(CCCN)C(=O)N1N=C2c3cc(F)ccc3OC[C@@H]2[C@@H]1c1ccccc1 (racemic) [Example 20, (3RS,3aRS)-8-Fluoro-3-phenyl-3a,4-dihydro-3H-chromeno[4,3-c]pyrazole-2-carboxylic acid (3-amino-propyl)-methyl-amide] | 100 to 1000 |
| CNCCCN(C)C(=O)N1N=C2c3cc(F)ccc3OC[C@@H]2[C@@H]1c1ccccc1 (racemic) [Example 22, (3RS,3aRS)-8-Fluoro-3-phenyl-3a,4-dihydro-3H-chromeno[4,3-c]pyrazole-2-carboxylic acid methyl-(3-methylamino-propyl)-amide] | ≤ 100 |
| CNCCN(C)C(=O)N1N=C2c3cc(F)ccc3OC[C@@H]2[C@@H]1c1ccccc1 (racemic) [Example 23, (3RS,3aRS)-8-Fluoro-3-phenyl-3a,4-dihydro-3H-chromeno[4,3-c]pyrazole-2-carboxylic acid methyl-(2-methylamino-ethyl)-amide] | 100 to 1000 |
| CN(C(=O)N1N=C2c3cc(F)ccc3OC[C@@H]2[C@@H]1c1cccc(O)c1)C1CCNCC1 (racemic) [Example 27, (3RS,3aRS)-8-Fluoro-3-(3-hydroxy-phenyl)-3a,4-dihydro-3H-chromeno[4,3-c]pyrazole-2-carboxylic acid methyl-piperidin-4-yl-amide] | ≤ 100 |
| CN(CCN1CCCC1)C(=O)N1N=C2c3cc(F)ccc3OC[C@@H]2[C@@H]1c1ccccc1 (racemic) [Example 28, (3RS,3aRS)-8-Fluoro-3-phenyl-3a,4-dihydro-3H-chromeno[4,3-c]pyrazole-2-carboxylic acid methyl-(2-pyrrolidin-1-yl-ethyl)-amide] | 100 to 1000 |
| CC(=O)N1CCN(CCN(C)C(=O)N2N=C3c4cc(F)ccc4OC[C@@H]3[C@@H]2c2ccccc2)CC1 (racemic) [Example 29, (3RS,3aRS)-8-Fluoro-3-phenyl-3a,4-dihydro-3H-chromeno[4,3-c]pyrazole-2-carboxylic acid [2-(4-acetyl-piperazin-1-yl)-ethyl]methyl-amide] | 100 to 1000 |
| CN(CCCN1CCCC1)C(=O)N1N=C2c3cc(F)ccc3OC[C@H]2[C@H]1c1ccccc1 (racemic) [Example 34, (3SR,3aSR)-8-Fluoro-3-phenyl-3a,4-dihydro-3H-chromeno[4,3-c]pyrazole-2-carboxylic acid methyl-(3-pyrrolidin-1-yl-propyl)-amide] | ≤ 100 |
| CC(=O)N1CCN(CCCN(C)C(=O)N2N=C3c4cc(F)ccc4OC[C@H]3[C@H]2c2ccccc2)CC1 (racemic) [Example 35, (3SR,3aSR)-8-Fluoro-3-phenyl-3a,4-dihydro-3H-chromeno[4,3-c]pyrazole-2-carboxylic acid [3-(4-acetyl-piperazin-1-yl)-propyl]-methyl-amide] | 100 to 1000 |
| CN(CCN1CCCCC1)C(=O)N1N=C2c3cc(F)ccc3OC[C@H]2[C@H]1c1ccccc1 (racemic) [Example 36, (3SR,3aSR)-8-Fluoro-3-phenyl-3a,4-dihydro-3H-chromeno[4,3-c]pyrazole-2-carboxylic acid methyl-(2-piperidin-1-yl-ethyl)-amide] | 100 to 1000 |
| CN(CCCN1CCCCC1)C(=O)N1N=C2c3cc(F)ccc3OC[C@H]2[C@H]1c1ccccc1 (racemic) [Example 37, (3SR,3aSR)-8-Fluoro-3-phenyl-3a,4-dihydro-3H-chromeno[4,3-c]pyrazole-2-carboxylic acid methyl-(3-piperidin-1-yl-propyl)-amide] | ≤ 100 |
| CN(CCCN1CCC1)C(=O)N1N=C2c3cc(F)ccc3OC[C@H]2[C@H]1c1ccccc1 (racemic) [Example 38, (3SR,3aSR)-8-Fluoro-3-phenyl-3a,4-dihydro-3H-chromeno[4,3-c]pyrazole-2-carboxylic acid (3-azetidin-1-yl-propyl)-methyl-amide] | ≤ 100 |
| CC(C)NCCN(C)C(=O)N1N=C2c3cc(F)ccc3OC[C@H]2[C@H]1c1ccccc1 (racemic) [Example 39, (3SR,3aSR)-8-Fluoro-3-phenyl-3a,4-dihydro-3H-chromeno[4,3-c]pyrazole-2-carboxylic acid (2-isopropylamino-ethyl)-methyl-amide] | ≤ 100 |
| CN(CCNC(C)(C)C)C(=O)N1N=C2c3cc(F)ccc3OC[C@H]2[C@H]1c1ccccc1 (racemic) [Example 40, (3SR,3aSR)-8-Fluoro-3-phenyl-3a,4-dihydro-3H-chromeno[4,3-c]pyrazole-2-carboxylic acid (2-tert-butylamino-ethyl)-methyl-amide] | ≤ 100 |
| CC(C)CNCCN(C)C(=O)N1N=C2c3cc(F)ccc3OC[C@H]2[C@H]1c1ccccc1 (racemic) [Example 41, (3SR,3aSR)-8-Fluoro-3-phenyl-3a,4-dihydro-3H-chromeno[4,3-c]pyrazole-2-carboxylic acid (2-isobutylamino-ethyl)-methyl-amide] | ≤ 100 |
| CC(C)CNCCCN(C)C(=O)N1N=C2c3cc(F)ccc3OC[C@H]2[C@H]1c1ccccc1 (racemic) [Example 42, (3SR,3aSR)-8-Fluoro-3-phenyl-3a,4-dihydro-3H-chromeno[4,3-c]pyrazole-2-carboxylic acid (3-isobutylamino-propyl)-methyl-amide] | 100 to 1000 |
| CN(CCCNC(C)(C)C)C(=O)N1N=C2c3cc(F)ccc3OC[C@H]2[C@H]1c1ccccc1 (racemic) [Example 43, (3SR,3aSR)-8-Fluoro-3-phenyl-3a,4-dihydro-3H-chromeno[4,3-c]pyrazole-2-carboxylic acid (3-tert-butylamino-propyl)-methyl-amide] | 100 to 1000 |
| CN(CCNC1CCC1)C(=O)N1N=C2c3cc(F)ccc3OC[C@H]2[C@H]1c1ccccc1 (racemic) [Example 44, (3SR,3aSR)-8-Fluoro-3-phenyl-3a,4-dihydro-3H-chromeno[4,3-c]pyrazole-2-carboxylic acid (2-cyclobutylamino-ethyl)-methyl-amide] | ≤ 100 |
